The source of these data is US8754075B2, “1,3-oxazines as BACE1 and/or BACE2 inhibitors” (Hoffmann-La Roche Inc., priority 2011, dated 2014).

The target in assay [1] is BACE1 (Homo sapiens (Human), UniProt P56817). As to the kind of experiment: Cellular Aβ-lowering assay. It is filed as cell-based. As to conditions: HEK293 cells stably expressing human APP wt (APP695); Aβ40 in supernatant by ELISA after 18-20 hrs. The protocol:
Cellular Aβ-Lowering Assay: Human HEK293 cells which are stably transfected with a vector expressing a cDNA of the human APP wt gene (APP695) were used to assess the potency of the compounds in a cellular assay. The cells were seeded in 96-well microtiter plates in cell culture medium (Iscove, plus 10% (v/v) fetal bovine serum, glutamine, penicillin/streptomycin) to about 80% confluence and the compounds were added at a 10× concentration in 1/10 volume of medium without FCS containing 8% DMSO (final concentration of DMSO was kept at 0.8% v/v). After 18-20 hrs incubation at 37° C. and 5% CO2 in a humidified incubator the culture supernatant was harvested for the determination of Aβ40 concentrations. […] After blocking of non-specific binding sites with e.g. 1% BSA and washing, the culture supernatants were added in suitable dilutions together with a horseradish peroxidase-coupled Aβ detection antibody (e.g., antibody 4G8, Senetek, Maryland Heights, Mo.) and incubated for 5 to 7 hrs. Subsequently the wells of the microtiter plate were washed extensively with Tris-buffered saline containing 0.05% Tween 20 and the assay was developed with tetramethylbenzidine/H2O2 in citric acid buffer. After stopping the reaction with one volume […] the reaction was measured in an ELISA reader at 450 nm wavelength. The concentrations of Aβ in the culture supernatants were calculated from a standard curve obtained with known amounts of pure Aβ peptide.
(In an ELISA, binding on a coated surface is turned into a signal by an enzyme label.)

The target of assay [2] is BACE2 (Rattus norvegicus (Rat), UniProt Q6IE75). As to the kind of experiment: Assay for BACE inhibition by measuring cellular TMEM27 cleavage. It is filed as cell-based. The settings on record: INS-TMEM27 (INS1e rat cell line, inducible hTMEM27); shed TMEM27 by ELISA. The text has this: Assay for BACE Inhibition by Measuring Cellular TMEM27 Cleavage:
The assay uses the principle of inhibition of human TMEM27 cleavage by endogenous cellular BACE2 in the Ins1e rat cell line and shedding from the cell surface into the culture medium, followed by detection in an ELISA assay Inhibition of BACE2 prevents the cleavage and shedding in a dose-dependent manner.
The stable cell line “INS-TMEM27” represents an INS1e-derived cell line with inducible expression (using the TetOn system) of full-length hTMEM27 in a doxycycline-dependent manner. The cells are cultured throughout the experiment in RPMI1640+Glutamax (Invitrogen) Penicillin/Streptomycin, 10% Fetal bovine serum, […], […], 100 micrograms/ml G418 and 100 microgram/ml hygromycin and are grown inadherent culture at 37° C. in a standard CO2 cell culture incubator.
INS-TMEM27 cells are seeded in 96-well plates. After 2 days in culture, BACE2 inhibitor is added in a range of concentrations as required by the assay and after a further two hours, doxycycline is added to a final concentration of 500 ng/ml. The cells are incubated for a further 46 hours and the supernatant harvested for detection of shed TMEM27.
An ELISA assay (using a pair of mouse anti-human-TMEM27 antibodies, raised against the extracellular domain of TMEM27) is used for detection of TMEM27 in the culture medium. An EC50 for BACE2 inhibition is calculated using the ELISA readout for each inhibitor concentration with standard curve-fitting software such as XLFit for the Excel spreadsheet program.

The structures appear in SMILES notation.

BACE2, sequence (Q6IE75 63-514): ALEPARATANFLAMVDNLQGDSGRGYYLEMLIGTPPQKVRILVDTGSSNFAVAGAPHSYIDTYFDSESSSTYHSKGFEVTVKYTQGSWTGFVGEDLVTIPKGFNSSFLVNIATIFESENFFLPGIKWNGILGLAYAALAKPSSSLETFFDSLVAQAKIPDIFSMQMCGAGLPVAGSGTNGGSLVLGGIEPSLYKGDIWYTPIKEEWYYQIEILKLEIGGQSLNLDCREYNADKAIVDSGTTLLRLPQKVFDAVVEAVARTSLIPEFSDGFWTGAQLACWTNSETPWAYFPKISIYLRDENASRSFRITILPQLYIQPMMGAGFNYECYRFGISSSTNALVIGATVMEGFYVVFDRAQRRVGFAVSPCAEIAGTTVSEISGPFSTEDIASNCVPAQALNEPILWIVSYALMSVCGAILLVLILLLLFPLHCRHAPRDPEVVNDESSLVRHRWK
BACE1, sequence (P56817 46-501): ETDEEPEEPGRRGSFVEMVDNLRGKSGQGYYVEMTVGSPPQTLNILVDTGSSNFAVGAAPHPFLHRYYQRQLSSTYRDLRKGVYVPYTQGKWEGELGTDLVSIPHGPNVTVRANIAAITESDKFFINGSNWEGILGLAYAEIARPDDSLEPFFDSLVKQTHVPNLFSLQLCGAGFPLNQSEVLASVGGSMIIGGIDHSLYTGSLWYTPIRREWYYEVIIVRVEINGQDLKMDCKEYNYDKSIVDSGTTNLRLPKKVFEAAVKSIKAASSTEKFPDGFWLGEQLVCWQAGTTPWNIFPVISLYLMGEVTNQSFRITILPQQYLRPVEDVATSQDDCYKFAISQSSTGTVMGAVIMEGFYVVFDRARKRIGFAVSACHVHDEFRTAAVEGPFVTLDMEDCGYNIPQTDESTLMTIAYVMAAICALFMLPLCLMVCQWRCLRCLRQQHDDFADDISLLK

What is called IC50 is the concentration that gives 50% inhibition. Low readings indicate greater potency in that assay, high ones weaker potency in that assay. On to `C[C@]1(F)COC(N)=N[C@]1(C)c1cc(NC(=O)c2ccc(Cl)cn2)ccc1F` [Example 41, 5-Chloro-pyridine-2-carboxylic acid [3-((4R,5R)-2-amino-5-fluoro-4,5-dimethyl-5,6-dihydro-4H-[1,3]oxazin-4-yl)-4-fluoro-phenyl]-amide], for which the IC50 was found to be 3 nM in assay [1] and 6 nM in assay [2].

Turning to `C[C@]1(c2cc(NC(=O)c3n[nH]cc3Cl)ccc2F)N=C(N)OC[C@@H]1F` [Example 28, 4-Chloro-1H-pyrazole-3-carboxylic acid [3-((4R,5R)-2-amino-5-fluoro-4-methyl-5,6-dihydro-4H-[1,3]oxazin-4-yl)-4-fluoro-phenyl]-amide], the IC50 was 130 nM in assay [1] and 35 nM in assay [2].

For the molecule `C[C@]1(c2cc(NC(=O)c3ccc(C(F)F)cn3)ccc2F)N=C(N)OC[C@@H]1F` [Example 11, 5-Difluoromethyl-pyridine-2-carboxylic acid [3-((4R,5R)-2-amino-5-fluoro-4-methyl-5,6-dihydro-4H-[1,3]oxazin-4-yl)-4-fluoro-phenyl]-amide], the IC50 in assay [1] was 3 nM; in assay [2], 1 nM.

Consider `C[C@]1(c2cc(NC(=O)c3cnc(C(F)F)cn3)ccc2F)N=C(N)OC[C@@H]1F` [Example 15, 5-Difluoromethyl-pyrazine-2-carboxylic acid [3-((4R,5R)-2-amino-5-fluoro-4-methyl-5,6-dihydro-4H-[1,3]oxazin-4-yl)-4-fluoro-phenyl]-amide], for which the IC50 in assay [1] was found to be 5 nM; in assay [2], 23 nM.

With `C[C@]1(c2cc(NC(=O)c3ccc(C#N)cn3)ccc2F)N=C(N)OC[C@@H]1OCC(F)(F)F` [Example 47, 5-Cyano-pyridine-2-carboxylic acid {3-[(4R,5R)-2-amino-4-methyl-5-(2,2,2-trifluoro-ethoxy)-5,6-dihydro-4H-[1,3]oxazin-4-yl]-4-fluoro-phenyl}-amide], the results for the IC50 in assay [1] and in assay [2] were 1 nM and 268 nM, respectively.

As for `C[C@]1(c2cc(NC(=O)c3ncc(Cl)cc3F)ccc2F)N=C(N)OC[C@@H]1F` [Example 8, 5-Chloro-3-fluoro-pyridine-2-carboxylic acid [3-((4R,5R)-2-amino-5-fluoro-4-methyl-5,6-dihydro-4H-[1,3]oxazin-4-yl)-4-fluoro-phenyl]-amide], the IC50 in assay [1] was 2 nM; in assay [2], 6 nM.

Consider `C[C@]1(c2cc(NC(=O)c3ccc(OCF)cn3)ccc2F)N=C(N)OC[C@@H]1F` [Example 5, 5-Fluoromethoxy-pyridine-2-carboxylic acid [3-((4R,5R)-2-amino-5-fluoro-4-methyl-5,6-dihydro-4H-[1,3]oxazin-4-yl)-4-fluoro-phenyl]], for which the figures for the IC50 in assay [1] and in assay [2] were 1 nM and 106 nM, respectively.

In the case of `C[C@]1(F)COC(N)=N[C@]1(C)c1cc(NC(=O)c2ccc(C#N)cn2)ccc1F` [Example 38, 5-Cyano-pyridine-2-carboxylic acid [3-((4R,5R)-2-amino-5-fluoro-4,5-dimethyl-5,6-dihydro-4H-[1,3]oxazin-4-yl)-4-fluoro-phenyl]-amide], the IC50 in assay [1] came to 0.4 nM; in assay [2], 23 nM.

In the case of `C[C@]1(c2cc(NC(=O)c3cnc(OCC4CC4)cn3)ccc2F)N=C(N)OC[C@@H]1F` [Example 16, 5-Cyclopropylmethoxy-pyrazine-2-carboxylic acid [3-((4R,5R)-2-amino-5-fluoro-4-methyl-5,6-dihydro-4H-[1,3]oxazin-4-yl)-4-fluoro-phenyl]-amide], the IC50 in assay [1] is 5 nM; in assay [2] it was 590 nM.

Regarding `C[C@]1(F)COC(N)=N[C@]1(C)c1cc(NC(=O)c2nn(CC(F)F)cc2Cl)ccc1F` [Example 43, 4-Chloro-1-(2,2-difluoro-ethyl)-1H-pyrazole-3-carboxylic acid [3-((4R,5R)-2-amino-5-fluoro-4,5-dimethyl-5,6-dihydro-4H-[1,3]oxazin-4-yl)-4-fluoro-phenyl]amide], the figures for the IC50 in assay [1] and in assay [2] were 183 nM and 110 nM, respectively.

`C[C@]1(c2cc(NC(=O)c3cnc(Cl)s3)ccc2F)N=C(N)OC[C@@H]1F` [Example 26, 2-Chloro-thiazole-5-carboxylic acid [3-((4R,5R)-2-amino-5-fluoro-4-methyl-5,6-dihydro-4H-[1,3]oxazin-4-yl)-4-fluoro-phenyl]-amide]: the IC50 in assay [1] was determined as 81 nM; in assay [2] it was 1400 nM.

As to `C[C@]1(c2cc(NC(=O)c3ccc(F)cn3)ccc2F)N=C(N)OC[C@@H]1F` [Example 20, 5-Fluoro-pyridine-2-carboxylic acid [3-((4R,5R)-2-amino-5-fluoro-4-methyl-5,6-dihydro-4H-[1,3]oxazin-4-yl)-4-fluoro-phenyl]-amide], the IC50 in assay [1] came to 10 nM; in assay [2], 7 nM.

With `C[C@]1(c2cc(NC(=O)c3ccc(Cl)cn3)ccc2F)N=C(N)OC[C@@H]1F` [Example 1, 5-Chloro-pyridine-2-carboxylic acid [3-((4R,5R)-2-amino-5-fluoro-4-methyl-5,6-dihydro-4H-[1,3]oxazin-4-yl)-4-fluoro-phenyl]-amide], the IC50 in assay [1] came out at 0.4 nM; in assay [2] it was 1 nM.

Take `C[C@]1(c2cc(NC(=O)c3ccc(OCC(F)(F)F)cn3)ccc2F)N=C(N)OC[C@@H]1F` [Example 17, 5-(2,2,2-Trifluoro-ethoxy)-pyridine-2-carboxylic acid [3-((4R,5R)-2-amino-5-fluoro-4-methyl-5,6-dihydro-4H-[1,3]oxazin-4-yl)-4-fluoro-phenyl]-amide]: the IC50 in assay [1] came out at 8 nM; in assay [2] it was 2300 nM.

As for `Cc1cc(C(=O)Nc2ccc(F)c([C@@]3(C)N=C(N)OC[C@@H]3F)c2)c(C)o1` [Example 18, 2,5-Dimethyl-furan-3-carboxylic acid [3-((4R,5R)-2-amino-5-fluoro-4-methyl-5,6-dihydro-4H-[1,3]oxazin-4-yl)-4-fluoro-phenyl]-amide], the IC50 in assay [1] amounted to 8 nM; in assay [2], 20 nM.

As to `C[C@]1(c2cc(NC(=O)c3ncc(Cl)cc3Cl)ccc2F)N=C(N)OC[C@@H]1OCC(F)(F)F` [Example 48, 3,5-Dichloro-pyridine-2-carboxylic acid {3-[(4R,5R)-2-amino-4-methyl-5-(2,2,2-trifluoro-ethoxy)-5,6-dihydro-4H-[1,3]oxazin-4-yl]-4-fluoro-phenyl}-amide], the IC50 in assay [1] was found to be 3 nM; in assay [2], 67 nM.

As for `C[C@]1(c2cc(NC(=O)c3ccc(C#CC4CC4)cn3)ccc2F)N=C(N)OC[C@@H]1F` [Example 14, 5-Cyclopropylethynyl-pyridine-2-carboxylic acid [3-((4R,5R)-2-amino-5-fluoro-4-methyl-5,6-dihydro-4H-[1,3]oxazin-4-yl)-4-fluoro-phenyl]-amide], the 50% inhibitory concentration (IC50) is 4 nM in assay [1] and 9 nM in assay [2].

On to `Cn1nc(C(F)(F)F)cc1C(=O)Nc1ccc(F)c([C@@]2(C)N=C(N)OC[C@@H]2F)c1` [Example 27, 2-Methyl-5-trifluoromethyl-2H-pyrazole-3-carboxylic acid [3-((4R,5R)-2-amino-5-fluoro-4-methyl-5,6-dihydro-4H-[1,3]oxazin-4-yl)-4-fluoro-phenyl]-amide], for which the IC50 in assay [1] came to 90 nM; in assay [2], 709 nM.

For the molecule `C[C@]1(c2cc(NC(=O)c3ncc(C#N)cc3Cl)ccc2F)N=C(N)OC[C@@H]1F` [Example 7, 3-Chloro-5-cyano-pyridine-2-carboxylic acid [3-((4R,5R)-2-amino-5-fluoro-4-methyl-5,6-dihydro-4H-[1,3]oxazin-4-yl)-4-fluoro-phenyl]-amide], the IC50 came out at 2 nM in assay [1] and 10 nM in assay [2].
